PubChem BioAssay (NCI)
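The compound was tested at five concentrations on cells cultured in 96-well plates, with a 48-hour exposure period. Abbreviation: GI50, concentration required for 50% inhibition of growth. TGI: total growth inhibition.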

Legend:
Assay in all cases: DTP human tumour cell line panel, 48 h
786-0 renal = test system: 786-0 renal
A498 renal = test system: A498 renal
A549 NSCLC = test system: A549 NSCLC
ACHN renal = test system: ACHN renal
BT-549 breast = test system: BT-549 breast
CAKI-1 renal = test system: CAKI-1 renal
CCRF-CEM leukemia = test system: CCRF-CEM leukemia
COLO 205 colon = test system: COLO 205 colon
DU-145 prostate = test system: DU-145 prostate
HCC-2998 colon = test system: HCC-2998 colon
HCT-116 colon = test system: HCT-116 colon
HCT-15 colon = test system: HCT-15 colon
HL-60(TB) leukemia = test system: HL-60(TB) leukemia
HOP-62 NSCLC = test system: HOP-62 NSCLC
HOP-92 NSCLC = test system: HOP-92 NSCLC
HS 578T breast = test system: HS 578T breast
HT29 colon = test system: HT29 colon
IGROV1 ovarian = test system: IGROV1 ovarian
K-562 leukemia = test system: K-562 leukemia
KM12 colon = test system: KM12 colon
LOX IMVI melanoma = test system: LOX IMVI melanoma
M14 melanoma = test system: M14 melanoma
MALME-3M melanoma = test system: MALME-3M melanoma
MCF7 breast = test system: MCF7 breast
MDA-MB-231 breast = test system: MDA-MB-231 breast
MDA-MB-435 = test system: MDA-MB-435
MOLT-4 leukemia = test system: MOLT-4 leukemia
NCI-H226 lung = test system: NCI-H226 lung
NCI-H23 lung = test system: NCI-H23 lung
NCI-H460 lung = test system: NCI-H460 lung
NCI-H522 lung = test system: NCI-H522 lung
NCI/ADR-RES ovarian = test system: NCI/ADR-RES ovarian
OVCAR-3 ovarian = test system: OVCAR-3 ovarian
OVCAR-4 ovarian = test system: OVCAR-4 ovarian
OVCAR-5 ovarian = test system: OVCAR-5 ovarian
OVCAR-8 ovarian = test system: OVCAR-8 ovarian
PC-3 prostate = test system: PC-3 prostate
RPMI-8226 leukemia = test system: RPMI-8226 leukemia
RXF 393 renal = test system: RXF 393 renal
SF-268 CNS = test system: SF-268 CNS
SF-295 CNS = test system: SF-295 CNS
SF-539 CNS = test system: SF-539 CNS
SK-MEL-2 melanoma = test system: SK-MEL-2 melanoma
SK-MEL-28 melanoma = test system: SK-MEL-28 melanoma
SK-MEL-5 melanoma = test system: SK-MEL-5 melanoma
SK-OV-3 ovarian = test system: SK-OV-3 ovarian
SN12C renal = test system: SN12C renal
SNB-19 CNS = test system: SNB-19 CNS
SNB-75 CNS = test system: SNB-75 CNS
SR leukemia = test system: SR leukemia
SW-620 colon = test system: SW-620 colon
T-47D breast = test system: T-47D breast
TK-10 renal = test system: TK-10 renal
U251 CNS = test system: U251 CNS
UACC-257 melanoma = test system: UACC-257 melanoma
UACC-62 melanoma = test system: UACC-62 melanoma
UO-31 renal = test system: UO-31 renal

Compound `CC1=C2C[C@H]3[C@@H](CC[C@@H]4CC(NS(C)(=O)=O)CC[C@@]43C)[C@@H]2CC[C@@]2(C1)O[C@@H]1C[C@H](C)CN[C@H]1[C@H]2C` (some centres undefined) has a GI50 (786-0 renal) of 8.94 µM, a TGI (786-0 renal) of 24.2 µM and a GI50 (A498 renal) of 13.2 µM. It also gave a TGI (A498 renal) of 26.8 µM, a GI50 (A549 NSCLC) of 4.26 µM and a TGI (A549 NSCLC) of 17.5 µM. The GI50 (ACHN renal) was 3.85 µM, the TGI (ACHN renal) was 14.6 µM and the GI50 (BT-549 breast) was 12 µM. It also gave a TGI (BT-549 breast) of 26 µM, a GI50 (CAKI-1 renal) of 7.63 µM and a TGI (CAKI-1 renal) of 22 µM. For the same compound, the GI50 (CCRF-CEM leukemia) was 7.71 µM, the TGI (CCRF-CEM leukemia) was 28.4 µM and the GI50 (COLO 205 colon) was 2.25 µM. It also gave a TGI (COLO 205 colon) of 4.43 µM, a GI50 (DU-145 prostate) of 14.4 µM and a TGI (DU-145 prostate) of 28 µM. It also gave a GI50 (HCC-2998 colon) of 14.1 µM, a TGI (HCC-2998 colon) of 28.2 µM and a GI50 (HCT-116 colon) of 4.77 µM. For the same compound, the TGI (HCT-116 colon) was 18.4 µM, the GI50 (HCT-15 colon) was 5.9 µM and the TGI (HCT-15 colon) was 21.4 µM. The GI50 (HL-60(TB) leukemia) was 6.12 µM, the TGI (HL-60(TB) leukemia) was 21.4 µM and the GI50 (HOP-62 NSCLC) was 11.3 µM. The TGI (HOP-62 NSCLC) was 24.8 µM, the GI50 (HOP-92 NSCLC) was 1.15 µM and the TGI (HOP-92 NSCLC) was 12.7 µM. The GI50 (HS 578T breast) was 11.8 µM, the TGI (HS 578T breast) was 37.5 µM and the GI50 (HT29 colon) was 3.5 µM. It also gave a TGI (HT29 colon) of 11.3 µM, a GI50 (IGROV1 ovarian) of 11.9 µM and a TGI (IGROV1 ovarian) of 26 µM. For the same compound, the GI50 (K-562 leukemia) was 4.25 µM, the TGI (K-562 leukemia) was 31.6 µM and the GI50 (KM12 colon) was 9.22 µM. The TGI (KM12 colon) was 22.6 µM, the GI50 (LOX IMVI melanoma) was 5.48 µM and the TGI (LOX IMVI melanoma) was 16.3 µM. The GI50 (M14 melanoma) was 7.92 µM, the TGI (M14 melanoma) was 22.6 µM and the GI50 (MALME-3M melanoma) was 9.75 µM. The TGI (MALME-3M melanoma) was 25.2 µM, the GI50 (MCF7 breast) was 3.49 µM and the TGI (MCF7 breast) was 14.9 µM. For the same compound, the GI50 (MDA-MB-231 breast) was 5.68 µM, the TGI (MDA-MB-231 breast) was 18.8 µM and the GI50 (MDA-MB-435) was 8.1 µM. For the same compound, the TGI (MDA-MB-435) was 22.8 µM, the GI50 (MOLT-4 leukemia) was 5.5 µM and the TGI (MOLT-4 leukemia) was 23.2 µM. The GI50 (NCI-H226 lung) was 5.44 µM, the TGI (NCI-H226 lung) was 21.1 µM and the GI50 (NCI-H23 lung) was 16.3 µM. For the same compound, the TGI (NCI-H23 lung) was 33.2 µM, the GI50 (NCI-H460 lung) was 4.81 µM and the TGI (NCI-H460 lung) was 16 µM. For the same compound, the GI50 (NCI-H522 lung) was 14.3 µM, the TGI (NCI-H522 lung) was 29 µM and the GI50 (NCI/ADR-RES ovarian) was 12.2 µM. It also gave a TGI (NCI/ADR-RES ovarian) of 28.3 µM, a GI50 (OVCAR-3 ovarian) of 4 µM and a TGI (OVCAR-3 ovarian) of 14 µM. The GI50 (OVCAR-4 ovarian) was 1.66 µM, the TGI (OVCAR-4 ovarian) was 4.79 µM and the GI50 (OVCAR-5 ovarian) was 13.7 µM. The TGI (OVCAR-5 ovarian) was 27.5 µM, the GI50 (OVCAR-8 ovarian) was 12 µM and the TGI (OVCAR-8 ovarian) was 25.7 µM. The GI50 (PC-3 prostate) was 4.39 µM, the TGI (PC-3 prostate) was 17.3 µM and the GI50 (RPMI-8226 leukemia) was 7.62 µM. The TGI (RPMI-8226 leukemia) was 29.5 µM, the GI50 (RXF 393 renal) was 3.65 µM and the TGI (RXF 393 renal) was 15.6 µM. It also gave a GI50 (SF-268 CNS) of 12.1 µM, a TGI (SF-268 CNS) of 26.6 µM and a GI50 (SF-295 CNS) of 12.5 µM. For the same compound, the TGI (SF-295 CNS) was 26.1 µM, the GI50 (SF-539 CNS) was 12.9 µM and the TGI (SF-539 CNS) was 25.9 µM. It also gave a GI50 (SK-MEL-2 melanoma) of 6.76 µM, a TGI (SK-MEL-2 melanoma) of 15.4 µM and a GI50 (SK-MEL-28 melanoma) of 4.81 µM. The TGI (SK-MEL-28 melanoma) was 11.3 µM, the GI50 (SK-MEL-5 melanoma) was 2.18 µM and the TGI (SK-MEL-5 melanoma) was 5.63 µM. It also gave a GI50 (SK-OV-3 ovarian) of 8.49 µM, a TGI (SK-OV-3 ovarian) of 21.2 µM and a GI50 (SN12C renal) of 10.4 µM. It also gave a TGI (SN12C renal) of 23.4 µM, a GI50 (SNB-19 CNS) of 12.5 µM and a TGI (SNB-19 CNS) of 27 µM. The GI50 (SNB-75 CNS) was 3.07 µM, the TGI (SNB-75 CNS) was 15.9 µM and the GI50 (SR leukemia) was 3.38 µM. It also gave a TGI (SR leukemia) of 12 µM, a GI50 (SW-620 colon) of 13.8 µM and a TGI (SW-620 colon) of 28.9 µM. The GI50 (T-47D breast) was 2.68 µM, the TGI (T-47D breast) was 7.51 µM and the GI50 (TK-10 renal) was 11.3 µM. For the same compound, the TGI (TK-10 renal) was 24.4 µM, the GI50 (U251 CNS) was 6.92 µM and the TGI (U251 CNS) was 20.8 µM. The GI50 (UACC-257 melanoma) was 6.28 µM, the TGI (UACC-257 melanoma) was 18.9 µM and the GI50 (UACC-62 melanoma) was 9.27 µM. For the same compound, the TGI (UACC-62 melanoma) was 21.8 µM, the GI50 (UO-31 renal) was 10.7 µM and the TGI (UO-31 renal) was 23.5 µM.
